Measurements reported in ChEMBL document CHEMBL5360644, “Structure-Activity Relationship Studies of 2,4,5-Trisubstituted Pyrimidine Derivatives Leading to the Identification of a Novel and Potent Sirtuin 5 Inhibitor against Sepsis-Associated Acute Kidney Injury” (J Med Chem, 2023).
*1 amine or outer side, *2 acyl side, *3 side chain or, on linkers, in order; H or OH if unused. Where a SMILES comes first, the peptide text is derived from it. The star is where a group is joined. AMC = Cc1cc(=O)oc2cc(N*)ccc12; Suc = O=C(CCC(=O)[*:2])[*:1]

biological target: T1, NAD-dependent protein deacylase sirtuin-5, mitochondrial (Homo sapiens, UniProt Q9NXA8); assay: Inhibition of human SIRT5 (34 to 269 residues) using Ac-Leu-Gly-Ser-Lys (Su)-AMC as fluorogenic substrate in presence of NAD+
Target sequence in this assay (Q9NXA8 whole entry, the tested form may be a part): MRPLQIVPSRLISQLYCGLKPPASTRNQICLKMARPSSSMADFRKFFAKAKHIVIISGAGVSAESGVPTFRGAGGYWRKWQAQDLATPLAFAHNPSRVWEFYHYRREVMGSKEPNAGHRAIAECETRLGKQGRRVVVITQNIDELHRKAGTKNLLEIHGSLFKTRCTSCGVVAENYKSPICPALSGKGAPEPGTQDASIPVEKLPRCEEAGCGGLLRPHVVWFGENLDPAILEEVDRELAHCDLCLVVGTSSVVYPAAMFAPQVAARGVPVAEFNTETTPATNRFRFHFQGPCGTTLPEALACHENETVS

Row | SMILES | IC50 [µM]
1 | CCOC(=O)c1cnc(Nc2ccc(Cl)cc2)nc1NCCCNC(=S)NCCC(=O)O | 9.4
2 | COc1cc(NC(=O)c2cnc(Nc3ccccc3Cl)nc2NCCCNC(=S)NCCC(=O)O)cc(OC)c1 | 1.54
3 | CCOC(=O)c1cnc(Nc2ccc(Br)cc2C)nc1NCCCNC(=S)NCCC(=O)O | 2.7
4 | CCOC(=O)c1cnc(Nc2cccc(C)c2)nc1NCCCNC(=S)NCCC(=O)O | 16.9
5 | CCOC(=O)c1cnc(Nc2cccc(OC)c2)nc1NCCCNC(=S)NCCC(=O)O | 17.1
6 | O=C(O)CCNC(=S)NCCCNc1nc(Nc2ccccc2Cl)ncc1C(=O)N1CCCC(c2ccccc2)C1 (stereo not given) | 3.66
7 | CCOC(=O)c1cnc(Nc2cccc(C)c2Br)nc1NCCCNC(=S)NCCC(=O)O | 2.3
8 | CCOC(=O)c1cnc(Nc2ccc(F)cc2)nc1NCCCNC(=S)NCCC(=O)O | 7.54
9 | CCOC(=O)c1cnc(Nc2cccc(Br)c2C)nc1NCCCNC(=S)NCCC(=O)O | 3.48
10 | O=C(O)CCNC(=S)NCCCNc1nc(Nc2ccccc2Cl)ncc1C(=O)N1CCC(c2ccccc2)CC1 | 3.54
11 | O=C(O)CCNC(=S)NCCCNc1nc(Nc2ccccc2Cl)ncc1C(=O)O | 1.64
12 | CCOC(=O)c1cnc(Nc2ccccc2)nc1NCCCNC(=S)NCCC(=O)O | 7.67
13 | O=C(O)CCNC(=S)NCCCNc1nc(Nc2ccccc2Cl)ncc1C(=O)N1CCOCC1 | 8.6
14 | O=C(O)CCNC(=S)NCCCNc1nc(Nc2ccccc2Cl)ncc1C(=O)NC1CCC1 | 7.93
15 | CCOC(=O)c1cnc(Nc2cccc(F)c2)nc1NCCCNC(=S)NCCC(=O)O | 9.57
16 | CCOC(=O)c1cnc(Nc2ccccc2F)nc1NCCCNC(=S)NCCC(=O)O | 5.87
17 | CCOC(=O)c1cnc(Nc2ccccc2-c2ccccc2)nc1NCCCNC(=S)NCCC(=O)O | 3.98
18 | CCOC(=O)c1cnc(Nc2cccc(Br)c2)nc1NCCCNC(=S)NCCC(=O)O | 22
19 | CCOC(=O)c1cnc(Nc2cccc(Cl)c2)nc1NCCCNC(=S)NCCC(=O)O | 13.4
20 | CCOC(=O)c1cnc(Nc2ccc(Br)cc2)nc1NCCCNC(=S)NCCC(=O)O | 7.52

Row | SMILES | IC50 [µM]
21 | CCOC(=O)c1cnc(Nc2cccc(F)c2Cl)nc1NCCCNC(=S)NCCC(=O)O | 2.39
22 | CCOC(=O)c1cnc(Nc2ccc(OC)cc2)nc1NCCCNC(=S)NCCC(=O)O | 10.5
23 | CCOC(=O)c1cnc(Nc2c(C)cccc2C)nc1NCCCNC(=S)NCCC(=O)O | 3.16
24 | CCOC(=O)c1cnc(Nc2cccc(F)c2C)nc1NCCCNC(=S)NCCC(=O)O | 2.38
25 | CCOC(=O)c1cnc(Nc2ccc(C)cc2)nc1NCCCNC(=S)NCCC(=O)O | 11.6
26 | CCOC(=O)c1cnc(Nc2ccccc2Cl)nc1NCCCNC(=S)NCCC(=O)O | 1.9
27 | O=C(O)CCNC(=S)NCCCNc1nc(Nc2ccccc2Cl)ncc1C(=O)N1CCCC1c1ccccc1 (stereo not given) | 27.3
28 | CCCNC(=O)c1cnc(Nc2ccccc2Cl)nc1NCCCNC(=S)NCCC(=O)O | 7.83
29 | CCOC(=O)c1cnc(Nc2ccccc2Br)nc1NCCCNC(=S)NCCC(=O)O | 4.06
30 | CCOC(=O)c1cnc(Nc2ccccc2OC)nc1NCCCNC(=S)NCCC(=O)O | 10.7
31 | O=C(O)CCNC(=S)NCCCNc1nc(Nc2ccccc2Cl)ncc1C(=O)N[C@@H]1C[C@H]1c1ccc(F)c(F)c1 | 1.24
32 | O=C(O)CCNC(=S)NCCCNc1nc(Nc2ccccc2Cl)ncc1C(=O)N1CCCC1 | 21.5
33 | CCOC(=O)c1cnc(Nc2c(F)cccc2F)nc1NCCCNC(=S)NCCC(=O)O | 2.82
34 | O=C(O)CCNC(=S)NCCCNc1nc(Nc2ccccc2Cl)ncc1C(=O)NC1CC1 | 9.56
35 | CCOC(=O)c1cnc(Nc2ccccc2C)nc1NCCCNC(=S)NCCC(=O)O | 3.53
36 | O=C(O)CCNC(=S)NCCCNc1nc(Nc2ccccc2Cl)ncc1C(=O)N1CCC(c2ccccc2)C1 (stereo not given) | 0.53
37 | O=C(O)CCNC(=S)NCCCNc1nc(Nc2ccccc2Cl)ncc1C(=O)N1CC[C@H](c2ccccc2)C1 | 0.31
38 | CCOC(=O)c1cnc(Nc2cc(OC)cc(OC)c2)nc1NCCCNC(=S)NCCC(=O)O | 6.9
39 | O=C(O)CCNC(=S)NCCCNc1nc(Nc2ccccc2Cl)ncc1C(=O)N[C@H]1CCCC[C@@H]1O | 8.95

More lines, now with the values ahead:

Row | IC50 [µM] | SMILES
40 | 3.72 | CC[C@H](NC(=O)c1cnc(Nc2ccccc2Cl)nc1NCCCNC(=S)NCCC(=O)O)c1ccccc1
41 | 2.77 | CC(C)OC(=O)c1cnc(Nc2ccccc2Cl)nc1NCCCNC(=S)NCCC(=O)O
42 | 5.45 | Cc1ccccc1NC(=O)c1cnc(Nc2ccccc2Cl)nc1NCCCNC(=S)NCCC(=O)O
43 | 2.8 | O=C(O)CCNC(=S)NCCCNc1nc(Nc2ccccc2Cl)ncc1C(=O)NC1(c2ccccc2)CC1
44 | 3.34 | COC(=O)c1cnc(Nc2ccccc2Cl)nc1NCCCNC(=S)NCCC(=O)O
45 | 1.11 | O=C(O)CCNC(=S)NCCCNc1nc(Nc2ccccc2Cl)ncc1C(=O)NCc1ccccc1
46 | 6.72 | CC(C)CNC(=O)c1cnc(Nc2ccccc2Cl)nc1NCCCNC(=S)NCCC(=O)O
47 | 3.18 | O=C(O)CCNC(=S)NCCCNc1nc(Nc2ccccc2Cl)ncc1C(=O)Nc1ccccc1
48 | 1.82 | CC(C)(C)OC(=O)[C@H](NC(=O)c1cnc(Nc2ccccc2Cl)nc1NCCCNC(=S)NCCC(=O)O)c1ccccc1
49 | 1.74 | C[C@H](NC(=O)c1cnc(Nc2ccccc2Cl)nc1NCCCNC(=S)NCCC(=O)O)c1ccccc1
50 | 1.08 | C[C@@H](NC(=O)c1cnc(Nc2ccccc2Cl)nc1NCCCNC(=S)NCCC(=O)O)c1ccccc1
51 | 5.37 | COc1ccccc1NC(=O)c1cnc(Nc2ccccc2Cl)nc1NCCCNC(=S)NCCC(=O)O
52 | 4.18 | O=C(O)CCNC(=S)NCCCNc1nc(Nc2ccccc2Cl)ncc1C(=O)N[C@H]1c2ccccc2C[C@H]1O
53 | 2.54 | O=C(O)CCNC(=S)NCCCNc1nc(Nc2ccccc2Cl)ncc1C(=O)N[C@@H]1C[C@H]1c1ccccc1
54 | 1.43 | O=C(O)CCNC(=S)NCCCNc1nc(Nc2ccccc2Cl)ncc1C(=O)NCCc1cc2ccccc2[nH]1
55 | 2.95 | O=C(O)CCNC(=S)NCCCNc1nc(Nc2ccccc2Cl)ncc1C(=O)Nc1cccc2ccccc12
56 | 2.82 | CC(C)c1ccccc1NC(=O)c1cnc(Nc2ccccc2Cl)nc1NCCCNC(=S)NCCC(=O)O
57 | 1.55 | CC(C)(C)OC(=O)[C@@H](NC(=O)c1cnc(Nc2ccccc2Cl)nc1NCCCNC(=S)NCCC(=O)O)c1ccccc1
58 | 5.15 | O=C(O)CCNC(=S)NCCCNc1nc(Nc2ccccc2Cl)ncc1C(=O)Nc1ccc2ccccc2c1
59 | 0.58 | CC[C@@H](NC(=O)c1cnc(Nc2ccccc2Cl)nc1NCCCNC(=S)NCCC(=O)O)c1ccccc1
60 | 1.6 | CC(CCc1ccccc1)NC(=O)c1cnc(Nc2ccccc2Cl)nc1NCCCNC(=S)NCCC(=O)O (stereo not given)
61 | 4.84 | O=C(O)CCNC(=S)NCCCNc1nc(Nc2ccccc2Cl)ncc1C(=O)Nc1ccccc1-c1ccccc1
62 | 1.71 | O=C(O)CCNC(=S)NCCCNc1nc(Nc2ccccc2Cl)ncc1C(=O)N[C@@H](Cc1ccccc1)C(=O)O

biological target: T1, NAD-dependent protein deacylase sirtuin-5, mitochondrial; assay: Binding affinity to human SIRT5 (34 to 269 residues) assessed as thermal stabilization by measuring change in melting temperature at 60 uM incubated for 10 mins in presence of NAD+ by SYPRO orange dye based thermal shift assay
Target sequence in this assay (Q9NXA8 37-310 limits assumed): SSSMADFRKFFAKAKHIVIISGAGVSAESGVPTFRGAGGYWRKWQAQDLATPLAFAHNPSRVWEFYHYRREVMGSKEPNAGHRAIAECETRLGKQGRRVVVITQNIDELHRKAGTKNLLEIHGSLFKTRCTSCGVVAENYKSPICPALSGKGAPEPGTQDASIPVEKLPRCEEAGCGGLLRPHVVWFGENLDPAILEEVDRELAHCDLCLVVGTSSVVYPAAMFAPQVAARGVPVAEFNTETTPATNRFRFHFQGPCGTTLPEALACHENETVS

Row | ΔTm [°C] | SMILES
63 | 0.97 | CC(=O)N[C@@H](CC(C)C)C(=O)NCC(=O)N[C@@H](CO)C(=O)N[C@@H](CCCCNC(=O)CCC(=O)O)C(=O)Nc1ccc2c(C)cc(=O)oc2c1 (Ac-LGSK(Suc)-{AMC})

biological target: T1, NAD-dependent protein deacylase sirtuin-5, mitochondrial; assay: Binding affinity to human SIRT5 (34 to 269 residues) assessed as thermal stabilization by measuring melting temperature at 60 uM incubated for 10 mins in presence of NAD+ by SYPRO orange dye based thermal shift assay (reference value: 66.32 degreeC)
Target sequence in this assay (Q9NXA8 37-310 limits assumed): as above

Row | Tm [°C] | SMILES
64 | 67.3 | CC(=O)N[C@@H](CC(C)C)C(=O)NCC(=O)N[C@@H](CO)C(=O)N[C@@H](CCCCNC(=O)CCC(=O)O)C(=O)Nc1ccc2c(C)cc(=O)oc2c1 (Ac-LGSK(Suc)-{AMC})

biological target: T2, NAD-dependent protein deacetylase sirtuin-2 (Homo sapiens, UniProt Q8IXJ6); assay: Inhibition of recombinant SIRT2 (unknown origin) using Ac-Glu-Thr-Asp-Lys (Dec)-AMC as substrate
T2 sequence (Q8IXJ6 whole entry): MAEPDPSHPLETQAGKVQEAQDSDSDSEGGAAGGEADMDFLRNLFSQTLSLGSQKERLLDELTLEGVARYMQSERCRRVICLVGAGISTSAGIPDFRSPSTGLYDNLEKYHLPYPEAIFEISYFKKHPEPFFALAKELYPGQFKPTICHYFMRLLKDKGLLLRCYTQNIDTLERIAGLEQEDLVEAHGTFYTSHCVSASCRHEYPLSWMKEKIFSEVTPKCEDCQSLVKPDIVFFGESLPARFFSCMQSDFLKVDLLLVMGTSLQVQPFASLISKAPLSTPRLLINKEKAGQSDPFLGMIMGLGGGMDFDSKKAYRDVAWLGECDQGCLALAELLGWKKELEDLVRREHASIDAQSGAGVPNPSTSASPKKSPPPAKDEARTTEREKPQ

Row | IC50 [µM] | SMILES
65 | 39.6 | O=C(O)CCNC(=S)NCCCNc1nc(Nc2ccccc2Cl)ncc1C(=O)N1CC[C@H](c2ccccc2)C1
